Measured values as given in ChEMBL document CHEMBL2331203, “Optimization of inhibitors of the tyrosine kinase EphB4. 2. Cellular potency improvement and binding mode validation by X-ray crystallography” (J Med Chem, 2013).

Tests used:
[1] = Cytotoxicity against human PAXF 1657L cells after 4 days by propidium iodide staining; conditions: 96 h
[2] = Cytotoxicity against human LXFA 983L cells after 4 days by propidium iodide staining; conditions: 96 h
[3] = Cytotoxicity against human RXF 393NL cells after 4 days by propidium iodide staining; conditions: 96 h
DU-145 = experiment: Cytotoxicity against human PRXF DU145 cells after 4 days by propidium iodide staining; conditions: DU-145, 96 h
[4] = Cytotoxicity against human GXF251L cells after 4 days by propidium iodide staining; conditions: GXF 251L, 96 h
[5] = Cytotoxicity against human CXF 1103L cells after 4 days by propidium iodide staining; conditions: 96 h
[6] = target: T1, Ephrin type-B receptor 4 (Homo sapiens) (UniProt P54760); experiment: Inhibition of EphB4 (unknown origin) transfected in CHO cells using Z'-LYTE TYR-1 peptide as substrate at 10 uM after 2 hrs by FRET assay; type: cell-based
T1 sequence (whole entry): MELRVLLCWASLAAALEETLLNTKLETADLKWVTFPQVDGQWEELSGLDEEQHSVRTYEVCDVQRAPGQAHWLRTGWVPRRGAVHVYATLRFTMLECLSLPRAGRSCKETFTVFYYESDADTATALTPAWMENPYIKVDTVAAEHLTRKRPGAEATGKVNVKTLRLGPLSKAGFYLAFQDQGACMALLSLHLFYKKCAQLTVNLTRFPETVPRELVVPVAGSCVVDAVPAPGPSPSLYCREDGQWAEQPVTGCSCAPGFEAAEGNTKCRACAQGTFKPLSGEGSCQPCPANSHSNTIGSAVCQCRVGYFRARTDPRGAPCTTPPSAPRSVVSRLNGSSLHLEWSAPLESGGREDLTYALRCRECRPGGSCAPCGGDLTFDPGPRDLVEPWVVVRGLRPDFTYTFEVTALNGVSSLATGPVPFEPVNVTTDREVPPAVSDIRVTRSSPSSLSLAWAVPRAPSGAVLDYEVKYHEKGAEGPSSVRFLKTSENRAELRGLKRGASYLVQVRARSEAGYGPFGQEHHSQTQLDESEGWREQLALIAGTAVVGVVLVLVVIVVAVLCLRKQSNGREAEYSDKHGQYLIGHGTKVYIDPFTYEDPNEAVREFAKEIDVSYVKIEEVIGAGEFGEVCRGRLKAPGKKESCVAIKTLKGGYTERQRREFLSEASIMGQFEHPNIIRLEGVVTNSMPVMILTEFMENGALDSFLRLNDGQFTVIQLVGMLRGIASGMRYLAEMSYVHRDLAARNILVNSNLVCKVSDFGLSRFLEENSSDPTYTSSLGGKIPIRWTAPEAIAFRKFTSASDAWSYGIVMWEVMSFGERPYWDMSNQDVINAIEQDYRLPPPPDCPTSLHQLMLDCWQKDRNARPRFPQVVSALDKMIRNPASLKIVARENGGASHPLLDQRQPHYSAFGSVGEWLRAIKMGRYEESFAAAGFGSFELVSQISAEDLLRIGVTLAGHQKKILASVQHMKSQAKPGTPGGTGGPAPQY

K562 = experiment: Cytotoxicity against human K562 cells by SRB assay; type: functional
[7] = Permeability from basolateral to apical side in human Caco2 cells assessed as compound recovery after 2 hrs by LC-MS/MS analysis; type: ADME, cell-based; conditions: Caco-2, read-out: permeability
Ephrin type-B receptor 4 = target: T2, Ephrin type-B receptor 4 (Homo sapiens, UniProt P54760)
T2 sequence (P54760 whole entry): T1 sequence (whole entry)
Description: Inhibition of human myc-tagged full length EphB4 expressed in MEF cells assessed as inhibition of ephrinB2-Fc-induced autophosphorylation incubated for 90 mins prior to ephrinB2-Fc-induction measured after 2 hrs by sandwich ELISA

[8] = Apparent permeability from basolateral to apical side in human Caco2 cells after 2 hrs by LC-MS/MS analysis; type: ADME, cell-based; conditions: Caco-2
[9] = target: Tyrosine-protein kinase Lck (Homo sapiens, UniProt P06239); experiment: Inhibition of Lck (unknown origin) using [gamma-33P]ATP after 30 mins by radiometric assay
Sequence of Tyrosine-protein kinase Lck (P06239 whole entry): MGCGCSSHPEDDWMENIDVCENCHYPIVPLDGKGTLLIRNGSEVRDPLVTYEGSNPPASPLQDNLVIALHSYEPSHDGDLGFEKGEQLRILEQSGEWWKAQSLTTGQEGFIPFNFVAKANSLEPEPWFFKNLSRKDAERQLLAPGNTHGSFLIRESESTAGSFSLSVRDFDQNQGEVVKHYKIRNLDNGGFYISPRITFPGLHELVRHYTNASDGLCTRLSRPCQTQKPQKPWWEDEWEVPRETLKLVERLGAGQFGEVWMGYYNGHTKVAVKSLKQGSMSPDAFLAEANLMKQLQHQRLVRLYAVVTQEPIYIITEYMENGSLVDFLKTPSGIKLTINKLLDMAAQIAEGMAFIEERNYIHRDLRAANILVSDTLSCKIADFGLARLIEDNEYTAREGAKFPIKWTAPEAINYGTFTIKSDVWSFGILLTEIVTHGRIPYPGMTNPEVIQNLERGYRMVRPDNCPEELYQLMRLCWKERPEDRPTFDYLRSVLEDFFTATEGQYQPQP

SNB-75 = experiment: Cytotoxicity against human SNB75 cells by SRB assay; type: functional
[10] = Apparent permeability from apical to basolateral side in human Caco2 cells after 2 hrs by LC-MS/MS analysis; type: ADME, cell-based; conditions: Caco-2
[11] = target: Proto-oncogene tyrosine-protein kinase Src (Homo sapiens, UniProt P12931)
Sequence of Proto-oncogene tyrosine-protein kinase Src (P12931 2-536 limits assumed): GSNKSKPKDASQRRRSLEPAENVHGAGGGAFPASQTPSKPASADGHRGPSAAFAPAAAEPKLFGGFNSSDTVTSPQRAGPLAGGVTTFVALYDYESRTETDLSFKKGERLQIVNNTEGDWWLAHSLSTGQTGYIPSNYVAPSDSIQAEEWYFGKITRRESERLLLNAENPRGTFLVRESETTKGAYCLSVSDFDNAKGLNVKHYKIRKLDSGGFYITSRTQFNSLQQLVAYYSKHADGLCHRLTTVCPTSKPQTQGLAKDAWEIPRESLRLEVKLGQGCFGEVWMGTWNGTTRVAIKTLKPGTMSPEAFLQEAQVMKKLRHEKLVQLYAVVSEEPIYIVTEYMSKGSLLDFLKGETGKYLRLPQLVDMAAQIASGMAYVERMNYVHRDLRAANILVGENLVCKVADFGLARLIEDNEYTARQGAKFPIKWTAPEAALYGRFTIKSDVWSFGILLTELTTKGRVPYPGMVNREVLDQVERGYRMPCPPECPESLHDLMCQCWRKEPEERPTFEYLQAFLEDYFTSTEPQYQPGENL
Description: Inhibition of Src (unknown origin) using [gamma-33P]ATP after 30 mins by radiometric assay

in vitro = conditions: human, Caco-2
Description: Efflux ratio of apparent permeability from basolateral to apical side to apical to basolateral side in human Caco2 cells

Hs-578T = experiment: Cytotoxicity against human Hs578T cells by SRB assay; type: functional
[12] = target: Tyrosine-protein kinase ABL1 (Homo sapiens, UniProt P00519)
Sequence of Tyrosine-protein kinase ABL1 (P00519 whole entry): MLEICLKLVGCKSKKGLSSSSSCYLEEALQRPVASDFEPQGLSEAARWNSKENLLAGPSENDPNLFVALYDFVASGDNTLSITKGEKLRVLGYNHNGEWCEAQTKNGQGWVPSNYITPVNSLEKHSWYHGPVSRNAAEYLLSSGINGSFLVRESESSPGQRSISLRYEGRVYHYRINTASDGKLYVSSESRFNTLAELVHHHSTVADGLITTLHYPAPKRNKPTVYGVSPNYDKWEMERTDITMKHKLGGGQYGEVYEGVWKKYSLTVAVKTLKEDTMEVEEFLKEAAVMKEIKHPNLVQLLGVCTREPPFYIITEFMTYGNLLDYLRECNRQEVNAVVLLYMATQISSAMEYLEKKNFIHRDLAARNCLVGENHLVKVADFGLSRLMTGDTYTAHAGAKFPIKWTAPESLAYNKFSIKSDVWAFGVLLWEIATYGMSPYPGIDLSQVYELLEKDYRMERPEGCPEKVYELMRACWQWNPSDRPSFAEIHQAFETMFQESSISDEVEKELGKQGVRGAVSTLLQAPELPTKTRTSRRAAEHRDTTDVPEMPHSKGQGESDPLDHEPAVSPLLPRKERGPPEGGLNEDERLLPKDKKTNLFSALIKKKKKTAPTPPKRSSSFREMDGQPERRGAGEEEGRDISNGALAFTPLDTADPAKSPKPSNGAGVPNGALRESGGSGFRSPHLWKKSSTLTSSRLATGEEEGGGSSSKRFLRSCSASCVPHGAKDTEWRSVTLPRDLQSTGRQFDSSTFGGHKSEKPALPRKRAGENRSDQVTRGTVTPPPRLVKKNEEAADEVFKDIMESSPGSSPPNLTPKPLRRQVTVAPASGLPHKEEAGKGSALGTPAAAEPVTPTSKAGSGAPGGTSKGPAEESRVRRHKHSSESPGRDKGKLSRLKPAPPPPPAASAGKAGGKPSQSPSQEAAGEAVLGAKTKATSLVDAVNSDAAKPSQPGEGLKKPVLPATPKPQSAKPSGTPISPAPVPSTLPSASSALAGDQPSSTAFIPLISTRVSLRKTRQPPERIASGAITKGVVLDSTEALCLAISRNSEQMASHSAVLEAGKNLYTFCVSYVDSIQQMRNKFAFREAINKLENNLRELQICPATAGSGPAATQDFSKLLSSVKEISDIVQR
Description: Inhibition of Abl (unknown origin) using [gamma-33P]ATP after 30 mins by radiometric assay

[13] = Permeability from apical to basolateral side in human Caco2 cells assessed as compound recovery after 2 hrs by LC-MS/MS analysis; type: ADME, cell-based; conditions: Caco-2, read-out: permeability

Compound | inhibition [6] | IC50 [1] | IC50 [2] | IC50 [3] | IC50 (DU-145) | IC50 [4] | IC50 [5] | further results
CCCCn1c(-c2ccccc2Cl)cn2c3c(=O)[nH]c(=O)n(C)c3nc12 |  | 4940 nM | 1620 nM | 2930 nM | 3180 nM | 18200 nM | 1140 nM | 
CCCCn1c(-c2c(C)cccc2C)cn2c3c(=O)[nH]c(=O)n(C)c3nc12 | 49% |  |  |  |  |  |  | 
CCCCCn1c(-c2ccccc2C)cn2c3c(=O)[nH]c(=O)n(C)c3nc12 |  | 5880 nM | 2720 nM | 5580 nM | 6970 nM | 4980 nM | 2570 nM | 
COc1ccccc1-n1c(-c2cc(O)ccc2C)cn2c3c(=O)[nH]c(=O)n(C)c3nc12 |  | 2010 nM | 9160 nM | 1760 nM | 2700 nM | 20200 nM | 32600 nM | GI50 (K562): 309 nM; recovery at 2 h [7]: 74%; IC50 (Ephrin type-B receptor 4): 130 nM; Papp B→A at 2 h [8]: 23 ×10⁻⁶ cm/s; IC50 [9]: 1.3 nM; GI50 (SNB-75): 128 nM; Papp A→B at 2 h [10]: 3.13 ×10⁻⁶ cm/s; IC50 [11]: 1.14 nM; efflux ratio (in vitro): 7.3; GI50 (Hs-578T): 562 nM; IC50 [12]: 0.92 nM; recovery at 2 h [13]: 51%
Cc1nc(Nc2ncc(C(=O)Nc3c(C)cccc3Cl)s2)cc(N2CCN(CCO)CC2)n1 [DASATINIB] |  | 121 nM | 56.5 nM | 21.7 nM | 62.3 nM | 2250 nM | 4360 nM | 
CCCCn1c(-c2cccc(Cl)c2)cn2c3c(=O)[nH]c(=O)n(C)c3nc12 | 22% |  |  |  |  |  |  | 
COc1ccccc1-n1c(-c2ccccc2)cn2c3c(=O)[nH]c(=O)n(C)c3nc12 |  |  |  |  |  |  |  | recovery at 2 h [7]: 76%; Papp B→A at 2 h [8]: 35.8 ×10⁻⁶ cm/s; Papp A→B at 2 h [10]: 32.3 ×10⁻⁶ cm/s; recovery at 2 h [13]: 71%
CCCCn1c(-c2ccc(F)cc2C)cn2c3c(=O)[nH]c(=O)n(C)c3nc12 |  | 9460 nM | 6020 nM | 8690 nM | 9590 nM | 14900 nM | 4040 nM | IC50 [9]: 617 nM
CCCCn1c(-c2ccccc2)cn2c3c(=O)[nH]c(=O)n(C)c3nc12 |  |  |  |  |  |  |  | recovery at 2 h [7]: 78%; Papp B→A at 2 h [8]: 42.5 ×10⁻⁶ cm/s; Papp A→B at 2 h [10]: 42.5 ×10⁻⁶ cm/s; recovery at 2 h [13]: 69%

The next lines start with results.

inhibition [6] | Compound | IC50 [1] | IC50 [2] | IC50 [3] | IC50 (DU-145) | IC50 [4] | IC50 [5] | further results
12% | COc1ccccc1-n1c(-c2cccc(Cl)c2)cn2c3c(=O)[nH]c(=O)n(C)c3nc12 |  |  |  |  |  |  | 
15% | CCCCn1c(-c2ccccc2C(F)(F)F)cn2c3c(=O)[nH]c(=O)n(C)c3nc12 |  |  |  |  |  |  | 
